The target of one assay is mouse TAAR1 (Mus musculus (Mouse), UniProt Q923Y8). Description: Radioligand binding assay on mouse TAAR1. As to conditions: mouse TAAR1 (first value of the cell), HEK-293 membranes; read-out: Ki (μM) mouse/rat. As for the experimental part: (§1) Construction of TAAR Expression Plasmids and Stably Transfected Cell Lines
(§2) For the construction of expression plasmids the coding sequences of human, rat and mouse TAAR 1 were amplified from genomic DNA essentially as described by Lindemann et al.. The Expand High Fidelity PCR System (Roche Diagnostics) was used with 1.5 mM Mg^2+ and purified PCR products were cloned into pCR2.1-TOPO cloning vector (Invitrogen) following the instructions of the manufacturer. PCR products were subcloned into the pIRESneo2 vector (BD Clontech, Palo Alto, Calif.), and expression vectors were sequence verified before introduction in cell lines.
(§3) HEK293 cells (ATCC #CRL-1573) were cultured essentially as described by Lindemann et al. (2005). For the generation of stably transfected cell lines HEK293 cells were transfected with the pIRESneo2 expression plasmids containing the TAAR coding sequences (described above) with Lipofectamine 2000 (Invitrogen) according to the instructions of the manufacturer, and 24 hrs post transfection the culture medium was supplemented with 1 mg/ml G418 (Sigma, Buchs, Switzerland). After a culture period of about 10 d clones were isolated, expanded and tested for responsiveness to trace amines (all compounds purchased from Sigma) with the cAMP Biotrak Enzyme immunoassay (EIA) System (Amersham) following the non-acetylation EIA procedure provided by the manufacturer.
Radioligand Binding Assay on Mouse TAAR1
Membrane Preparation and Radioligand Binding.
(§4) HEK-293 cells stably expressing mouse TAAR1 were maintained at 37° C. and 5% CO2 in DMEM high glucose medium, containing fetal calf serum (10%, heat inactivated for 30 min at 56° C.), penicillin/streptomycin (1%), and 375 μg/ml geneticin (Gibco). Cells were released from culture flasks using trypsin/EDTA, harvested, washed twice with ice-cold PBS (without Ca^2+ and Mg^2+), pelleted at 1,000 rpm for 5 min at 4° C., frozen and stored at −80° C. Frozen pellets were suspended in 20 ml HEPES-NaOH (20 mM, pH 7.4) containing 10 mM EDTA and homogenized with a Polytron (PT 6000, Kinematica) at 14,000 rpm for 20 s. The homogenate was centrifuged at 48,000×g for 30 min at 4° C. Subsequently, the supernatant was removed and discarded, and the pellet resuspended in 20 ml HEPES-NaOH (20 mM, pH 7.4) containing 0.1 mM EDTA using the Polytron (20 s at 14,000 rpm). This procedure was repeated and the final pellet resuspended in HEPES-NaOH containing 0.1 mM EDTA and homogenized using the Polytron. Typically, aliquots of 2 ml membrane portions were stored at −80° C. With each new membrane batch the dissociation constant (Kd) was determined via a saturation curve. […] All compounds were tested at a broad range of concentrations (10 pM to 10 μM) in duplicates. […] The 96 deep well plates were incubated for 1 hr at 4° C. Incubations were terminated by rapid filtration through Unifilter-96 plates (Packard Instrument Company) and glass filters GF/C (Perkin Elmer) presoaked for 1 hr in polyethylenimine (0.3%) and washed 3 times with 1 ml of cold binding buffer. After addition of 45 μl of Microscint 40 (PerkinElmer) the Unifilter-96 plate was sealed and after 1 hr the ratioactivity counted using a TopCount Microplate Scintillation Counter (Packard Instrument Company).

For the next assay, the target named is rat TAAR1 (Rattus norvegicus (Rat), UniProt Q923Y9). Kind of assay: Radioligand binding assay on rat TAAR1. The following applies: rat TAAR1 (second value of the cell), HEK-293 membranes; read-out: Ki (μM) mouse/rat. The procedure: as §1, §2, §3
Chain of rat TAAR1 (Q923Y9 whole entry): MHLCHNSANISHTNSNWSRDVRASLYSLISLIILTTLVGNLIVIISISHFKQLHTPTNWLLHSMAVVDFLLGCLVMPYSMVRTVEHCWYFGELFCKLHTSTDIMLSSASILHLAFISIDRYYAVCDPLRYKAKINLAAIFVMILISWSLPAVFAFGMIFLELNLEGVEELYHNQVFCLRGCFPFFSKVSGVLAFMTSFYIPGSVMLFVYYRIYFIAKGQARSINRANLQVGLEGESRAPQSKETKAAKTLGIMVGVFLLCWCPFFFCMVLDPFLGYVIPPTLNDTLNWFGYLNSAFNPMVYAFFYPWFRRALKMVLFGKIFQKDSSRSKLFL
Radioligand Binding Assay on Rat TAAR1
Membrane Preparation and Radioligand Binding
as §4, with “rat” for “mouse”

Each structure is given as a SMILES string.

Ki data for 25 molecules are collected here from patent publication US8802673B2, “Heterocyclic amine derivatives” (Hoffmann-La Roche Inc, priority 2011, dated 2014).

Chain of mouse TAAR1 (Q923Y8 whole entry): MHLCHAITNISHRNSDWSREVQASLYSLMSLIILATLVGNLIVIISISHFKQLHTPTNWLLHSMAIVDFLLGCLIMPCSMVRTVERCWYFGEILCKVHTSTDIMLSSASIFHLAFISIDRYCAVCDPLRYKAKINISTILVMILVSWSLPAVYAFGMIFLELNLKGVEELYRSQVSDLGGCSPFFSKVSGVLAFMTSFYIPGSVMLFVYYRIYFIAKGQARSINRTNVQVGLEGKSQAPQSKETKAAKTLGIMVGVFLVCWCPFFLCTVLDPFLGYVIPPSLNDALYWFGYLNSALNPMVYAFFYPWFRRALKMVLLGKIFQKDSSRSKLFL

For the molecule `CCc1cnc(Nc2ccc([C@@H]3CCCNC3)cc2)nc1` [Example 112, (5-Ethyl-pyrimidin-2-yl)-((S)-4-piperidin-3-yl-phenyl)-amine], the results for the Ki on mouse TAAR1 and on rat TAAR1 were 0.0038 µM and 0.197 µM, respectively.
For `CC(Nc1ccc([C@H]2CNCCO2)cc1)c1ccc(Cl)cc1` (mixture of isomers) [Example 70, [(RS)-1-(4-Chloro-phenyl)-ethyl]-((S)-4-morpholin-2-yl-phenyl)-amine] the same measures were 0.523 µM and 4.07 µM.
With `Clc1ccc(CNc2ccc([C@H]3CNCCO3)cc2)cc1Cl` [Example 30, (3,4-Dichloro-benzyl)-((S)-4-morpholin-2-yl-phenyl)-amine], the values for the Ki at mouse TAAR1 and at rat TAAR1 were 0.0051 µM and 0.0417 µM, respectively.
For `Cc1cnc(Nc2ccc([C@H]3CNCCO3)cc2)cn1` [Example 156, (5-Methyl-pyrazin-2-yl)-((S)-4-morpholin-2-yl-phenyl)-amine] the same measures were 0.0093 µM and 0.833 µM.
As for `Clc1cnc(Nc2ccc(C3CNCCO3)cc2)nc1` (racemic) [Example 6, (RS)-(5-Chloro-pyrimidin-2-yl)-(4-morpholin-2-yl-phenyl)-amine], the Ki on mouse TAAR1 came to 0.0133 µM; on rat TAAR1, 0.232 µM.
The matching figures for `CCOc1cnc(Nc2ccc([C@H]3CNCCO3)cc2F)nc1` [Example 133, (5-Ethoxy-pyrimidin-2-yl)-((S)-2-fluoro-4-morpholin-2-yl-phenyl)-amine]: 0.0052 µM and 0.0387 µM.
For the molecule `Clc1ccc(Nc2ccc([C@@H]3CNCCO3)cc2)nc1` [Example 69, (R)-5-Chloro-N-(4-(morpholin-2-yl)phenyl)pyridin-2-amine], the Ki on mouse TAAR1 came to 0.0014 µM; on rat TAAR1 it was 0.0438 µM.
Consider `FC(F)(F)c1cnc(Nc2ccc([C@@H]3CNCCO3)cc2)c(Cl)c1` [Example 185, (R)-3-Chloro-N-(4-(morpholin-2-yl)phenyl)-5-(trifluoromethyl)pyridin-2-amine], for which the results for the Ki on mouse TAAR1 and on rat TAAR1 were 0.0549 µM and 0.0888 µM, respectively.
`Cc1cc(Nc2ccc([C@H]3CNCCO3)cc2)ncc1Cl` [Example 83, (S)-5-Chloro-4-methyl-N-(4-(morpholin-2-yl)phenyl)pyridin-2-amine]: the Ki on mouse TAAR1 worked out at 0.0006 µM; at rat TAAR1, 0.0222 µM.
Regarding `Cc1cc(C2CNCCO2)ccc1Nc1ccc(Cl)cc1` (racemic) [Example 79, (RS)-(4-Chloro-phenyl)-(2-methyl-4-morpholin-2-yl-phenyl)-amine], the Ki was 0.0047 µM on mouse TAAR1 and 0.0716 µM on rat TAAR1.
Consider `c1ccc(-n2ccc(Nc3ccc([C@H]4CNCCO4)cc3)n2)cc1` [Example 163, ((S)-4-Morpholin-2-yl-phenyl)-(1-phenyl-1H-pyrazol-3-yl)-amine], for which the results for the Ki at mouse TAAR1 and on rat TAAR1 were 0.0026 µM and 0.0332 µM, respectively.
For `Cc1cc(C2CNCCO2)ccc1Nc1ccc(Br)cn1` (racemic) [Example 76, (RS)-5-Bromo-N-(2-methyl-4-(morpholin-2-yl)phenyl)pyridin-2-amine], the Ki was 0.0024 µM at mouse TAAR1 and 0.045 µM at rat TAAR1.
The matching figures for `FS(F)(F)(F)(F)c1ccc(Nc2ccc([C@@H]3CNCCO3)cc2)cc1` [Example 191, (4-Pentalluorosulfanyl-phenyl)-((R)-4-morpholin-2-yl-phenyl)-amine]: 0.001 µM and 0.0032 µM.
For `FC(F)(F)COc1cnc(Nc2ccc([C@@H]3CNCCO3)c(Cl)c2)nc1` [Example 203, ((R)-3-Chloro-4-morpholin-2-yl-phenyl)-[5-(2,2,2-trifluoro-ethoxy)-pyrimidin-2-yl]-amine] the same measures were 0.0022 µM and 0.0017 µM.
On to `COc1cc(OC)nc(Nc2ccc([C@@H]3CNCCO3)cc2)n1` [Example 183, (4,6-Dimethoxy-pyrimidin-2-yl)-((R)-4-morpholin-2-yl-phenyl)-amine], for which the results for the Ki on mouse TAAR1 and at rat TAAR1 were 0.0094 µM and 0.174 µM, respectively.
For `Cc1ccc(Nc2ccc([C@H]3CNCCO3)cc2)nn1` [Example 160, (6-Methyl-pyridazin-3-yl)-((S)-4-morpholin-2-yl-phenyl)-amine] the same measures were 0.0061 µM and 2.75 µM.
As for `Clc1ccc(CNc2ccc(C3CNCCO3)cc2)cc1` (racemic) [Example 9, (RS)-(4-Chloro-benzyl)-(4-morpholin-2-yl-phenyl)-amine], the Ki on mouse TAAR1 stood at 0.0181 µM; on rat TAAR1 it was 0.0893 µM.
For the molecule `CCCc1cnc(Nc2ccc([C@@H]3CNCCO3)cc2)nc1` [Example 93, ((R)-4-Morpholin-2-yl-phenyl)-(5-propyl-pyrimidin-2-yl)-amine], the Ki on mouse TAAR1 was determined as 0.005 µM; on rat TAAR1 it was 0.0222 µM.
With `Fc1cc(Nc2ncc(C3CC3)cn2)ccc1[C@H]1CNCCO1` [Example 195, (S)-5-Cyclopropyl-N-(3-fluoro-4-(morpholin-2-yl)phenyl)pyrimidin-2-amine], the Ki at mouse TAAR1 amounted to 0.0017 µM; on rat TAAR1, 0.0252 µM.
As to `N#Cc1ccnc(Nc2ccc([C@@H]3CNCCO3)cc2)n1` [Example 181, 2-((R)-4-Morpholin-2-yl-phenylamino)-pyrimidine-4-carbonitrile], the Ki was 0.0084 µM at mouse TAAR1 and 0.398 µM on rat TAAR1.
Take `Fc1cc(Br)cnc1Nc1ccc([C@H]2CNCCO2)cc1` [Example 57, (S)-5-Bromo-3-fluoro-N-(4-(morpholin-2-yl)phenyl)pyridin-2-amine]: the Ki on mouse TAAR1 was 0.0023 µM; on rat TAAR1 it was 0.0866 µM.
The matching figures for `CNC(=O)c1cnc(Nc2ccc([C@@H]3CNCCO3)cc2)nc1` [Example 159, 2-((R)-4-Morpholin-2-yl-phenylamino)-pyrimidine-5-carboxylic acid methylamide]: 1.34 µM and 1.76 µM.
The matching figures for `FC(F)(F)c1cnc(Nc2ccc([C@@H]3CNCCO3)cc2)cn1` [Example 201, (R)—N-(4-(Morpholin-2-yl)phenyl)-5-(trffluoromethyl)pyrazin-2-amine]: 0.008 µM and 0.0626 µM.
For `CCc1cnc(Nc2ccc([C@H]3CNCCO3)cc2C)nc1` [Example 107, (5-Ethyl-pyrimidin-2-yl)-((S)-2-methyl-4-morpholin-2-yl-phenyl)-amine] the same measures were 0.005 µM and 0.0877 µM.
With `c1cnc(Nc2ccc([C@@H]3CNCCO3)cc2)nc1` [Example 176, (R)—N-(4-(Morpholin-2-yl)phenyl)pyrimidin-2-amine], the Ki was 0.152 µM on mouse TAAR1 and > 10 µM at rat TAAR1.
